Non-standard residues stand in square brackets, D forms with d. Residues, ends and D or L forms follow the SMILES beside them. *: point of attachment. NMeF = CN[C@@H](Cc1ccccc1)C(=O)O; Cha = N[C@@H](CC1CCCCC1)C(=O)O; NMeL = CN[C@@H](CC(C)C)C(=O)O; dNMeL = CN[C@H](CC(C)C)C(=O)O; dNMeV = CN[C@@H](C(=O)O)C(C)C; Cbz = O=C(OCc1ccccc1)*; Sar = CNCC(=O)O
Legend:
HCT-116 [1] = assay: Growth inhibition in HCT116 cells assessed as inhibition of [3H]thymidine incorporation at 1 uM relative to control; format: functional; conditions: Homo sapiens, read-out: TGI
HCT-15 [2] = assay: Growth inhibition in HCT15 cells assessed as inhibition of [3H]thymidine incorporation at 1 uM relative to control; format: functional; conditions: Homo sapiens, read-out: TGI
[3] = Growth inhibition in WS1 cells assessed as inhibition of [3H]thymidine incorporation; format: functional, cell-based; conditions: Homo sapiens
HCT-15 [4] = assay: Growth inhibition in HCT15 cells assessed as inhibition of [3H]thymidine incorporation; format: functional, cell-based; conditions: Homo sapiens
HCT-116 [5] = assay: Growth inhibition in HCT116 cells assessed as inhibition of [3H]thymidine incorporation; format: functional, cell-based; conditions: Homo sapiens

SMILES	inhibition of growth at 1 µM (HCT-116 [1]) [%]	inhibition of growth at 1 µM (HCT-15 [2]) [%]	IC50 [3] [µM]	IC50 (HCT-15 [4]) [µM]	IC50 (HCT-116 [5]) [µM]
CC(C)C[C@@H]1NC(=O)[C@H](Cc2ccccc2)NC(=O)[C@H](CC(C)C)NC(=O)[C@H](C(C)C)N(C)C(=O)[C@H](CC(C)C)NC1=O	6	23			
CC(C)C[C@@H]1NC(=O)[C@H](Cc2ccccc2)NC(=O)[C@@H](Cc2ccccc2)N(C)C(=O)[C@H](C(C)C)NC(=O)[C@H](CC(C)C)NC1=O	59	57	200	0.65	
CC(C)C[C@@H]1NC(=O)[C@H](Cc2ccccc2)NC(=O)[C@@H](Cc2ccccc2)NC(=O)[C@H](C(C)C)NC(=O)[C@H](CC(C)C)NC1=O	35	14		300	200
CC(C)C[C@@H]1NC(=O)[C@@H](Cc2ccccc2)NC(=O)[C@@H](CC(C)C)NC(=O)[C@@H](C(C)C)N(C)C(=O)[C@H](CC(C)C)NC1=O	44	35			
CC(C)C[C@@H]1NC(=O)[C@@H](CC(C)C)N(C)C(=O)[C@H](Cc2ccccc2)NC(=O)[C@H](C(C)C)NC(=O)[C@H](C(C)C)NC1=O	42	48	200	1.2	2
CC(C)C[C@@H]1NC(=O)[C@H](C(C)C)NC(=O)[C@H](CC(C)C)N(C)C(=O)[C@H](CC(C)C)N(C)C(=O)[C@H](Cc2ccccc2)NC1=O	30	57			
CC(C)C[C@@H]1NC(=O)[C@@H](C(C)C)N(C)C(=O)[C@H](CC(C)C)NC(=O)[C@@H](CC(C)C)NC(=O)[C@H](Cc2ccccc2)NC1=O	0	0			
CC(C)C[C@@H]1NC(=O)[C@H](Cc2ccccc2)NC(=O)[C@H](CC(C)C)NC(=O)[C@@H](C(C)C)N(C)C(=O)[C@H](CC(C)C)NC1=O	19	21			
CC(C)C[C@@H]1NC(=O)[C@H](C(C)C)NC(=O)[C@H](CC(C)C)N(C)C(=O)[C@@H](CC(C)C)N(C)C(=O)[C@H](Cc2ccccc2)NC1=O	23	30			
CC(C)C[C@@H]1NC(=O)[C@H](Cc2ccccc2)NC(=O)[C@H](CC(C)C)NC(=O)[C@@H](C(C)C)NC(=O)[C@H](CCCCNC(=O)OCc2ccccc2)NC1=O (cyclo(FLK(Cbz)[dV]L))	16	3			
CC(C)C[C@@H]1NC(=O)[C@H](Cc2ccccc2)NC(=O)[C@H](CC(C)C)NC(=O)[C@@H](C(C)C)NC(=O)[C@H](CCCCN)NC1=O (cyclo(FLK[dV]L))	11	18			
CC(C)C[C@@H]1NC(=O)[C@H](Cc2ccccc2)NC(=O)[C@H](CC(C)C)NC(=O)[C@H](C(C)C)NC(=O)[C@H](CC(C)C)NC1=O (cyclo(FLLVL))	28	10	300	21	
CC(C)C[C@@H]1NC(=O)[C@H](Cc2ccccc2)NC(=O)[C@@H](CC(C)C)NC(=O)[C@H](C(C)C)NC(=O)[C@H](CC(C)C)NC1=O (cyclo(FLLV[dL]))	18	10			
CC(C)C[C@@H]1NC(=O)[C@H](Cc2ccccc2)NC(=O)[C@@H](CC(C)C)N(C)C(=O)[C@H](C(C)C)NC(=O)[C@H](CC(C)C)NC1=O (cyclo(FLLV[dNMeL]))	25	33			
CC(C)C[C@@H]1NC(=O)[C@H](Cc2ccccc2)NC(=O)[C@H](CC(C)C)NC(=O)[C@@H](Cc2ccccc2)NC(=O)[C@H](CC(C)C)NC1=O (cyclo(FLL[dF]L))	11	11			
CC(C)C[C@@H]1NC(=O)[C@H](Cc2ccccc2)NC(=O)[C@H](CC(C)C)NC(=O)[C@@H](CO)NC(=O)[C@H](CC(C)C)NC1=O (cyclo(FLL[dS]L))	0	11			

SMILES	inhibition of growth at 1 µM (HCT-116 [1]) [%]	inhibition of growth at 1 µM (HCT-15 [2]) [%]	IC50 [3] [µM]	IC50 (HCT-15 [4]) [µM]	IC50 (HCT-116 [5]) [µM]
CC(C)C[C@@H]1NC(=O)[C@H](Cc2ccccc2)NC(=O)[C@H](CC(C)C)NC(=O)[C@@H](C(C)C)NC(=O)[C@H](CC(C)C)NC1=O (cyclo(FLL[dV]L))	48	48	20		
CC(C)C[C@@H]1NC(=O)[C@H](Cc2ccccc2)NC(=O)[C@@H](CC(C)C)NC(=O)[C@@H](C(C)C)NC(=O)[C@H](CC(C)C)NC1=O (cyclo(FLL[dV][dL]))	41	21			
CC(C)C[C@@H]1NC(=O)[C@H](Cc2ccccc2)NC(=O)[C@H](CC(C)C)NC(=O)[C@H](C(C)C)NC(=O)[C@@H](CC(C)C)NC1=O (cyclo(FL[dL]VL))	0	15			
CC(C)C[C@@H]1NC(=O)[C@H](C(C)C)NC(=O)[C@H](CC(C)C)NC(=O)[C@H](CC(C)C)N(C)C(=O)[C@H](Cc2ccccc2)NC1=O (cyclo(F[NMeL]LVL))	59	35			
CC(C)C[C@@H]1NC(=O)[C@@H](C(C)C)NC(=O)[C@H](CC(C)C)NC(=O)[C@H](CC(C)C)N(C)C(=O)[C@H](Cc2ccccc2)NC1=O (cyclo(F[NMeL]L[dV]L))	38	19			
CC(C)C[C@@H]1NC(=O)CN(C)C(=O)[C@H](Cc2ccccc2)NC(=O)[C@H](C(C)C)NC(=O)[C@@H](C(C)C)NC1=O (cyclo(F[Sar]L[dV]V))	20	18			
CC(C)C[C@@H]1NC(=O)[C@@H](CC(C)C)NC(=O)[C@H](Cc2ccccc2)NC(=O)[C@H](CC(C)C)NC(=O)[C@@H](C(C)C)NC1=O (cyclo(F[dL]L[dV]L))	16	20			
CC(C)C[C@@H]1NC(=O)[C@H](C(C)C)NC(=O)[C@@H](CC(C)C)NC(=O)[C@@H](CC(C)C)NC(=O)[C@H](Cc2ccccc2)NC1=O (cyclo(F[dL][dL]VL))	28	40			
CC(C)C[C@@H]1NC(=O)[C@H](CC(C)C)NC(=O)[C@@H](Cc2ccccc2)NC(=O)[C@H](CC(C)C)NC(=O)[C@H](C(C)C)NC1=O (cyclo(LLVL[dF]))	30	26			
CC(C)C[C@@H]1NC(=O)[C@H](CC(C)C)NC(=O)[C@@H](Cc2c[nH]c3ccccc23)NC(=O)[C@H](CC(C)C)NC(=O)[C@H](C(C)C)NC1=O (cyclo(LLVL[dW]))	2	9			
CC(C)C[C@@H]1NC(=O)[C@H](CC(C)C)NC(=O)[C@@H](Cc2ccc(O)cc2)NC(=O)[C@H](CC(C)C)NC(=O)[C@H](C(C)C)NC1=O (cyclo(LLVL[dY]))	45	60	200		
CC(C)C[C@@H]1NC(=O)[C@H](Cc2ccc(O)cc2)NC(=O)[C@H](CC(C)C)N(C)C(=O)[C@H](C(C)C)NC(=O)[C@H](CC(C)C)NC1=O (cyclo(LLV[NMeL]Y))	20	3			
CC(C)C[C@@H]1NC(=O)[C@H](Cc2ccccc2)NC(=O)[C@H](CC(C)C)NC(=O)[C@@H](C(C)C)N(C)C(=O)[C@H](CC2CCCCC2)NC1=O (cyclo([Cha][dNMeV]LFL))	48	60	16		2
CC(C)C[C@@H]1NC(=O)[C@H](CC(C)C)NC(=O)[C@H](Cc2ccccc2)N(C)C(=O)[C@H](CC(C)C)NC(=O)[C@H](C(C)C)NC1=O (cyclo([NMeF]LLVL))	2	18			
CC(C)C[C@@H]1NC(=O)[C@H](C(C)C)NC(=O)[C@H](CC(C)C)NC(=O)[C@@H](CC(C)C)N(C)C(=O)[C@H](Cc2ccccc2)NC1=O (cyclo([dNMeL]LVLF))	45	10			
O=c1[nH]cc(F)c(=O)[nH]1 [FLUOROURACIL]			300	300	300

From ChEMBL document CHEMBL1147145, “Scaffold targeting drug-resistant colon cancers” (J Med Chem, 2007)
